Article PMC10649968, “Structural Basis of the Immunological Cross-Reactivity between Kiwi and Birch Pollen” (Foods, 2023)

Legend:
[1] = target: T1, Act c 8 (Actinidia chinensis, UniProt D1YSM4); assay: 1H-15N HSQC NMR titration (chemical shift perturbations); format: binding
T1 construct: gene ypr-10
T1 sequence (D1YSM4 1-159): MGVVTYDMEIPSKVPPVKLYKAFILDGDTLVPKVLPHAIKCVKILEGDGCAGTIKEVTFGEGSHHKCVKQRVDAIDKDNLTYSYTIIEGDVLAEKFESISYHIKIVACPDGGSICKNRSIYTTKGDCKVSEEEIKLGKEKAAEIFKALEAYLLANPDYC

[2] = target: T2, Act d 8 (Actinidia deliciosa, UniProt D1YSM5); assay: as above; format: binding
T2 construct: gene ypr-10
T2 sequence (D1YSM5 1-157): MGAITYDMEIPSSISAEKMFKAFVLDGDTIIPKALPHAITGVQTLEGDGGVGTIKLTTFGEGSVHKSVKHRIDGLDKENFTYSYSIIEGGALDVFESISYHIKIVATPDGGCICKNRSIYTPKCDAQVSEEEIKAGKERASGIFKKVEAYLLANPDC

## Oc1cccc(O)c1O [pyrogallol]
[1]
  Kd: 30 mM
[2]
  Kd: 5 mM
